# Laboratory results from patent publication US20160108391A1, “REAGENT COMPOSITIONS HAVING PYRIDINE-CARBOXYLIC ACID-[…], AS WELL AS METHODS OF MAKING AND USING THE SAME” (Roche Diabetes Care, Inc., priority 2013, published 2016).
# Tested on: glucose dehydrogenase mutant 2
# Conditions: cNAD instead of NAD, increasing amounts of nicotinic acid
# Protocol: Methods: test elements with added nicotinic acid were prepared and analog to Example 1, but with adding coenzyme cNAD (see, Int'l Patent Application Publication No. WO 2007/012494) instead of NAD (same amount on molar basis).
# Consequently, test elements were stored: (a) in open vials at 85% r.h. and 35° C., or (b) in closed vials with desiccant at 35° C.
smiles,measurement,setting,value
"O=C(O)c1cccnc1 [nicotinic acid, pyridine-3-carboxylic acid]","stabilizing effect on remaining enzymatic activity, dry conditions","closed vials with desiccant at 35° C., FIG. 3b",significant stabilizing effect
same,"stabilizing effect on remaining enzymatic activity, humid conditions","open vials at 85% r.h. and 35° C., FIG. 3a",significant stabilizing effect
